Results: patent US9618524B2, “Method, composition, isolation and identification of a plaque particle and related biomarker” (Plaxgen Inc., priority 2012, dated 2017)

How the values were obtained:
Experiment in all cases: Mass spectroscopy proteomics, semi-quantitative binding affinity of serum proteins (plaqueproteome, Table 2)
Conditions in all cases: higher number = stronger affinity
Tau plaque particles = system: Tau plaque particles; parameters: species or system human
Procedure: For Tau-74 (74-102) (Exon 3/Insert 2 domain) preparation, 1 mg of Tau-74 was suspended in 1 mL of PBS and the sample was incubated at 37° C. for 2 hrs. Similarly for preparing Tau-275 (275-305) (Repeat 2 domain) 1 mg of the peptide was suspended in 1 mL of PBS and the sample was incubated at 37° C. for 2 hrs. After incubation, all the samples were centrifuged for 5 min. at 5000 rpm to remove precipitate, if any, and the supernatant containing oligomers/aggregates were used for in vitro amyloid plaque particles formation assay. For detecting Tau plaque particles, Thioflavin S (Ex/Em=430 nm/550 nm) amyloid binding fluorescent dye (10 μg) was used in the assay.
Next, to isolate Tau plaque particles, as performed for Abeta-42 and Abeta-28 plaque particles isolation, diluted serum samples were used for incubation separately with Tau-45, Tau-74 and Tau-275 oligomers/aggregates. Each assay was performed in 1 mL reaction (800 μL of 50% plasma or serum) and 200 μL (30 μg) of each Tau aggregates and the mixtures were incubated at 37° C. for 1 hr. To the each mixture Thioflavin S dye (120 μg) was added and the sample was incubated for additional 30 min at 37° C. After the incubation, each sample was directly used for sample acquisition using flow cytometer (FACS ARIA II, BD Biosciences, San Jose, Calif.). After initial detection of Tau plaque particles, gates were drawn in the acquisition blot to separately sort and isolate fluorescently labeled Tau plaque particles.
(§1) For preparing trypsin digested peptide sequences, the isolated plaque particles were centrifuged at 10000 rpm for 5 min and the pellet containing plaque particles was resuspended in 100 μl PBS buffer. Stock solutions of digestion buffer (Ammonium Biocarbonate 50 mM), reducing buffer (DDT 100 mM) and alkylation buffer (lodoaceamide 100 mM) were prepared and stored at −20° C. for up to two months. For trypsin digestion, 100 μl of each plaque particles (2000 of Abeta-42, cholesterol, Tau and alpha-synuclein) were precipitated using cold acetone −80° C. by adding 4X's the volume. The samples were placed on dry ice for 10 min with intermittent vortex. Next, the samples were centrifuged at 4° C. at 10000 G for 10 min. Top layer of acetone was carefully removed from the tube with care not to disturb the plaque particles pellet. The samples were speed-vac for 10 min to ensure all acetone has been boiled away. The plaque particles pellet were reconstituted with 15 μl 8M Urea 100 mM Ammonium bicarbonate stock and 20 μl protease max solution. The protease max solution (Promega, Madison, Wis.) was prepared from stock by adding 60 μl 50 mM Ammonium bicarbonate and used for 3 solution digests (20 μl each). […] The tubes were incubated at 55° C. for 30 minutes. The tubes were then removed and brought to the room temperature followed by addition of 3.2 μl of 1M acrylamide and incubated at room temperature for 30 minutes. To the sample, 63 μL of 50 mM Ammonium bicarbonate was added for a final volume of 98 μl and 2 μl of trypsin (10 μg, Trypsin/Lys C Mix). After mixing the solution with pipet the samples were incubated at 37° C. overnight. After the overnight digest, the tryptic digest were quenched and acidified by adding 10 μl of 50% formic acid/water stock dilution. The samples were centrifuged at 10000 G for 2 minutes and purified using stage tip and used for MS/Mass analysis.
(§2) All MS/MS samples were analyzed using Sequest (Thermo Fisher Scientific, San Jose, Calif., USA; version 1.0). Sequest was set up to search the SUMS_uniprot_Human database (35847 entries) assuming the digestion enzyme strict trypsin. Sequest was searched with a fragment ion mass tolerance of 1.00 Da and a parent ion tolerance of 20 PPM. Propionamide of cysteine was specified in Sequest as a fixed modification. Oxidation of methionine and phospho of serine, threonine and tyrosine were specified in Sequest as variable modifications.

[1] = target: T1, Abeta-42 plaque particles (Homo sapiens, UniProt P05067)
T1 construct: Abeta 1-42
Procedure: Next to isolate serum derived Abeta-42 plaque particles, the plasma or serum samples obtained from AD subjects were first centrifuged at 5,000 rpm for 5 min and the supernatants were transferred to new centrifuge tubes. Next, the supernatants were diluted in PBS to make 50% of the serum and plasma samples and used for incubation with Abeta-42 plaque oligomers/aggregates. Each assay was performed in 1 mL reaction (800 μL of 50% plasma or serum) and 200 μL (30 μg) of the Abeta-42 aggregates and the mixtures were incubated at 37° C. for 1 hr. To the mixture Thioflavin S dye (120 μg) was added and the sample was incubated for additional 30 min at 37° C. After the incubation, the mixture was directly used for sample acquisition using flow cytometer (FACS ARIA II, BD Biosciences, San Jose, Calif.). After initial detection of Abeta-42 plaque particles in the acquisition blot, gates were drawn in fluorescent dot blot to separately sort and isolate fluorescently labeled Abeta-42 particles.
as §1, §2
Scaffold (version Scaffold_4.2.1, Proteome Software Inc., Portland, Oreg.) was used to validate MS/MS based peptide and protein identifications. […] Protein probabilities were assigned by the Protein Prophet algorithm (Nesvizhskii, Al et al 2003). […] Proteins sharing significant peptide evidence were grouped into clusters. Proteins were annotated with GO terms from NCBI (downloaded Jan. 17, 2014).

[2] = target: T2, alpha-synuclein plaque particles (Homo sapiens, UniProt P37840)
T2 construct: 140 amino acids polypeptide
Procedure: To prepare oligomers/aggregates of human alpha-synuclein (140 amino acids polypeptide), 1 mg of the recombinant alpha-synuclein protein was suspended in 1 mL of PBS and the sample was incubated at 37° C. for 2 hrs. After incubation, all the samples were centrifuged for 5 min. at 5000 rpm to remove precipitate, if any, and the supernatant containing oligomers/aggregates were used in vitro plaque particles formation assay. For detecting alpha-synuclein plaque particles Thioflavin S (Ex/Em=430 nm/550 nm) amyloid binding fluorescent dye (10 μg) was used.
Similarly, to isolate alpha-synuclein plaque particles, diluted plasma or serum samples obtained from AD subjects were used for incubation with alpha-synuclein plaque oligomers/aggregates. Each assay was performed in 1 mL reaction (800 μL of 50% plasma or serum) and 200 μL (30 μg) of the alpha-synuclein aggregates and the mixtures were incubated at 37° C. for 1 hr. To the mixture Thioflavin S dye (120 μg) was added and the sample was incubated for additional 30 min at 37° C. After the incubation, the mixture was directly used for sample acquisition using flow cytometer (FACS ARIA II, BD Biosciences, San Jose, Calif.). After initial detection of alpha-synuclein plaque particles, gates were drawn in the acquisition blot to separately sort and isolate fluorescently labeled alpha-synuclein particles.
as §1, §2
Scaffold (version Scaffold_4.2.1, Proteome Software Inc., Portland, Oreg.) was used to validate MS/MS based peptide and protein identifications.

[3] = system: High Density cholesterol (Chl Large) plaque particles; parameters: species or system human
Procedure: (§3) The goal was to isolate plaque particles synthesized in the bio-fluids in a relatively pure form to enable their subsequent use for identification of components that contribute to the plaque formation. In order to isolate cholesterol plaque particles, the plasma or serum samples obtained from atherosclerotic subjects were first centrifuged at 5,000 rpm for 5 min and the supernatants were transferred to new centrifuge tubes. Next, the supernatants were diluted in PBS to make 50% of the serum and used for incubation with cholesterol oligomers/aggregates. Each assay was performed in 1 mL reaction (800 μL of 50% plasma or serum) and 200 μL (30 μg) of the Cholesterol aggregates and the mixtures were incubated at 37° C. for 1 hr After the incubation, the mixture was directly used for sample acquisition using flow cytometer (FACS ARIA II, BD Biosciences, San Jose, Calif.). […] In order to isolate these fractions, three sets of gates were drawn in the acquisition blot to separately sort and isolate High density or high complex cholesterol particles, Low density or low complex cholesterol particles and both High and low density cholesterol particles together.
as §1, §2
(§4) Scaffold (version Scaffold_4.2.1, Proteome Software Inc., Portland, Oreg.) was used to validate MS/MS based peptide and protein identifications. […] Protein probabilities were assigned by the Protein Prophet algorithm (Nesvizhskii, Al et al 2003).

[4] = system: Low density cholesterol (Chl small) plaque particles; parameters: species or system human
Procedure: as §3, §1, §2, §4

| Substance | Semi-quantitative analysis of proteins binding to different plaque particles: Tau (Tau plaque particles) | Semi-quantitative analysis of proteins binding to different plaque particles: Abeta-42 [1] | Semi-quantitative analysis of proteins binding to different plaque particles: Synuclein [2] | Semi-quantitative analysis of proteins binding to different plaque particles: Chl Large [3] | Semi-quantitative analysis of proteins binding to different plaque particles: Chl small [4] |
| --- | --- | --- | --- | --- | --- |
| Ig lambda-7 chain C region | 3 | 2 | 4 | 3 | 2 |
| Cathepsin D | 0 | 5 | 0 | 0 | 0 |
| Cluster of Ig lambda-2 chain C regions | 11 | 9 | 8 | 5 | 9 |
| Ig kappa chain V-I region Mev | 0 | 0 | 0 | 1 | 1 |
| Ig kappa chain V-I region CAR | 1 | 5 | 1 | 1 | 1 |
| Ig heavy chain V-III region TEI | 4 | 5 | 3 | 4 | 5 |
| Isoform 2 of Annexin A2 | 0 | 2 | 0 | 0 | 0 |
| Phosphatidylcholine-sterol acyltransferase | 0 | 0 | 1 | 1 | 0 |
| Myosin-13 | 0 | 17 | 0 | 0 | 0 |
| Alpha-1-antitrypsin | 28 | – | 20 | 22 | 21 |
| Cluster of Alpha-1-antitrypsin | 28 | – | 20 | 22 | 21 |
| Apolipoprotein E | 13 | – | 8 | 7 | 9 |
